From patent US5413991A (Ajinomoto Co., Inc., priority 1991, dated 1995)

What was measured:
[1] = system: endo-type chitinase of insects; details: background statement; cited from earlier work
fungi-derived chitinase = details: background statement; cited from earlier work
[2] = system: silkworm-derived chitinase; details: background statement; cited from earlier work
[3] = target: chitinase from Trichoderma sp. (Chitinase T-1); assay: Assay for chitinase inhibitory activity, chitinase from Trichoderma sp.; type: biochemical; details: McIlvaine buffer pH 5.2, substrate 4MBTC
Procedure: The chitinase from Trichoderma sp. was provided for use in the assay described in procedure (ii) below by diluting commercially available Chitinase T-1 (manufactured by Asahi Industry Co., Ltd.) with MclIvanine buffer (obtained by adding 0.2M aqueous disodium hydrogen phosphate to 0.1M aqueous citric acid and adjusting the pH to 5.2) to a concentration of 50 μg/ml.
(§1) In a 20 ml vial bottle, 50 μl of the chitinase solution from Candida albicans prepared as described above,s 50 μl of 100 μg/ml aqueous 4-methylumbelliferyl β-D-N,N',N"-triacetyl-chitotrioside (hereinafterabbreviated as 4MBTC, SIGMA Co.), 75 μl of 50 mM bis-Tris buffer (pH 6.5) and 25 μl of 0.1N acetic acid were added and mixed. The reaction was carried out at 37° C. for 30 minutes. As a blank, the reaction was carried out in an identical manner, substituting 50 mM bis-Tris buffer (pH 6.5) for the enzyme solution. After the reaction, sufficient 0.5M glycine-sodium hydroxide buffer (pH 10.4) was added to make the total volume 5 ml. Then, the fluorescent intensity was determined with a fluorophotometer (manufactured by Hitachi Ltd., MPF-4). The excited wavelength was 350 nm, and the fluorescent wavelength was 400 nm. Chitinase activity was determined using the difference in the fluorescent intensity between the read-out data from the sample containing the enzyme and the blank read-out data.
(§2) In determining the inhibitory activity of AJI9463A, AJI9463B, AJI9463C, and the partially hydrolyzed disaccharides thereof, each compound was dissolved in 0.1N acetic acid, and 25 μl of the compound solution was substituted for the 25 μl of 0.1N acetic acid in the reaction system described above. Further, in determining the inhibitory activity against the chitinases of baker's yeast and Trichoderma sp., the assay was performed by changing the buffer in the reaction system described above from 50 mM bis-Tris buffer (pH 6.5) to 0.1M citrate buffer (pH 3.0) and MclLvanine buffer (pH 5.2), respectively.

[4] = system: chitinase from Candida albicans; assay: Assay for chitinase inhibitory activity, chitinase from Candida albicans (4MBTC fluorescence); type: biochemical, Candida albicans ATCC 10231; details: for Chitinase Inhibitory Activity IC50, C. albicans: bis-Tris buffer pH 6.5, 37° C., 30 minutes, substrate 4MBTC; for Inhibitory activity against chitinase derived from Candida albicans, in words: comparison in words
Procedure: The chitinase from Candida albicans (C. albicans) was prepared by the following method. Firstly, a Sabouraud medium (pH 5.6) composed of 4 g of glucose, 1 g of polypeptone and 100 ml of water was prepared and placed in an Erlenmeyer flask of 500 ml volume. After sterilization at 120° C. for 20 minutes, one platinum loop of slant culture cells of C. albicans ATCC 10231 was inoculated into the medium, and then shake cultured at 37° C. for 2 days to obtain a primary seed mother liquor.
In a second procedure, 1 liter of Sabouraud medium having the same composition as above was prepared. Separately, 100 ml of the medium was added to each of ten 500 ml Erlenmeyer flasks, then the flasks and their contents were sterilized at 120° C. for 20 minutes. Thereafter, 2 ml of the primary seed mother liquor described above was added to each flask. The flask was shaken at 37° C. for 2 days to obtain a secondary seed mother liquor.
In a third procedure, 50 liters of Sabouraud medium having the same composition as described above was prepared and added to a culture tank of 100 liter volume. The tank and its contents were sterilized at 120° C. for 30 minutes. In the tank, 1 liter of the secondary seed mother liquor described above was added. Shake culturing was then conducted at 37° C. for 15 hours. At this stage, the stirring velocity was 140 rpm and the aerial rate was 10 l/min. The resulting culture broth was centrifuged by a sharpless centrifuging machine to recover the cells. The wet weight of the thus obtained cells was 250 g.
The cells were suspended in 800 ml of a buffer for cell homogenization (50 mM bis-Tris, 0.25M saccharose, 1 mM disodium ethylenediaminetetraacetate, pH 6.5). The suspension was twice passed through a Dyno-mill disintegrator (beads: MK-2GX, 0.25-0.5 mm) to disrupt the cells, and the supernatant was recovered. The supernatant was centrifuged at 9000 g for 30 minutes, then further super-centrifuged at 152,000 g for an hour. The supernatant thereof was recovered, and was concentrated to about one-fifth of the volume by ultrafiltration (Toyo Ultrafilter UP-20), having an excluding limiting molecular weight of 20,000. The concentrate was used as the crude chitinase solution from Candida albicans in the assay described in procedure (ii) below.
as §1, §2

[5] = target: T1, chitinase from baker's yeast (S cerevisiae) (Saccharomyces cerevisiae, UniProt P29029); assay: Assay for chitinase inhibitory activity, chitinase from baker's yeast; type: biochemical; details: 0.1M citrate buffer pH 3.0, substrate 4MBTC
T1 construct: was shaken at 30° C. for 2 hours at 120 spm to extract the enzyme; host or cells: commercial baker's yeast, digitonin extract
T1 sequence (P29029 21-562): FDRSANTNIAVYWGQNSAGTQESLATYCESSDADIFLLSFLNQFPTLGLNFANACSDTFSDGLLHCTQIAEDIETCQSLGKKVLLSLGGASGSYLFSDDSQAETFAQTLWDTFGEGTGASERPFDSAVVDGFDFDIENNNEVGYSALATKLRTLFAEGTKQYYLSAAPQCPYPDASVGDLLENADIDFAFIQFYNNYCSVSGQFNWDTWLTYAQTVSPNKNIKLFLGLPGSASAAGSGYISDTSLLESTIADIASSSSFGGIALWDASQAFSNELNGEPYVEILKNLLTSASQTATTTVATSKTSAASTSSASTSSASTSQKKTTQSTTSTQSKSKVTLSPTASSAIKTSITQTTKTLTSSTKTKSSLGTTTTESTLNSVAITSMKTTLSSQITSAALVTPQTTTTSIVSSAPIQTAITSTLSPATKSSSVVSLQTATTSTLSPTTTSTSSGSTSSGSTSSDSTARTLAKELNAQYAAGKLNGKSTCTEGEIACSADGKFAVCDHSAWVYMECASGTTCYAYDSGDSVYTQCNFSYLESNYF
Procedure: The chitinase from baker's yeast (S cerevisiae) was prepared by the following method. Firstly, 400 g of baker's yeast (manufactured by Kanegafuchi Chemical Industry Co., Ltd.) was suspended in buffer for enzyme extraction (0.1% digitonin: manufactured by Wako Pure Chemical Industry Co., Ltd.), 0.1% β-mercaptoethanol and 2 liters of 25 mM MES (manufactured by Nakarai Chemical Co., Ltd.), and was shaken at 30° C. for 2 hours at 120 spm to extract the enzyme. The extract was centrifuged at 12,000 g for 10 minutes and the supernatant was recovered. The supernatant was concentrated to about one-fifth of the volume by ultrafiltration (UP-20). After 800 ml of sodium citrate buffer (obtained by adding 0.15M aqueous sodium citrate to 0.15M aqueous citric acid, and adjusting the pH to 3.0) was added to the concentrate, the precipitates were removed by centrifugation (0° C., 12,000 g, 10 minutes). The supernatant was again concentrated by ultrafiltration (UP-20) to about 80 ml. The resulting concentrate was used as the chitinase from baker's yeast in the assay described in procedure (ii) below.
as §1, §2

[6] = system: mouse ascites breast cancer cells FM3A; assay: Cytotoxicity, mouse ascites breast cancer cells FM3A; type: cell-based; details: 1 mg/ml, 37° C., 4 days, microscopic observation
Procedure: (§3) Six separate samples of mouse ascites breast cancer cells FM3A, inoculated in Dulbeccol's modified MEM medium supplemented with 10% calf fetal serum (1×10^5 counts/ml) were prepared, and AJI9463A, AJI9463B, AJI9463C and each of the partially hydrolyzed disaccharides thereof were respectively added thereto, resulting in a concentration of 1 mg/ml. Stationary culture was conducted at 37° C. for 4 days. The cultured mouse ascites breast cancer cells FM3A were observed microscopically.

[7] = system: human leukemia cells K562; assay: Cytotoxicity, human leukemia cells K562; type: cell-based; details: 1 mg/ml, 37° C., 4 days, microscopic observation
Procedure: as §3, with “human leukemia” for “mouse ascites breast cancer”, “K562,” for “FM3A,”, “RPMI 1640” for “Dulbeccol's modified MEM”, “human leukemia cell K562 culture was” for “cultured mouse ascites breast cancer cells FM3A were”

[8] = system: Candida albicans (ATCC 10231); assay: Effects on growth of Candida albicans; type: cell-based; details: 50 μg/ml, Sabouraud dextrose medium, 37° C., 6 and 9 hours after inoculation, microscopic observation
Procedure: Samples of Candida albicans (ATCC 10231) were precultured in Sabouraud dextrose medium. Each of seven large test tubes containing 5 ml of Sabouraud dextrose medium were charged, respectively, with 50 μg/ml of AJI9463A, AJI9463B, AJI9463C, and the partially hydrolyzed disaccharides thereof and medium containing no active inhibitory component. The preculture was then inoculated into the media in the test tubes. The test tubes were capped with a cotton stopper, and incubated at 37° C. at 120 spm. The change in the subsequent culture with respect to time was observed. Observations were made microscopically, sampling the medium at the time when the culture started, and 6 and 9 hours thereafter.

Row | Structure (SMILES) | Inhibition of endo-type chitinase of insects [1] | Inhibitory activity against fungi-derived chitinase (fungi-derived chitinase) | Inhibition of silkworm-derived chitinase [2] | Chitinase Inhibitory Activity IC50, Trichoderma sp. [3] [µg/mL] | Chitinase Inhibitory Activity IC50, C. albicans [4] [µg/mL] | IC50 [5] [µM] | Growth inhibition of mouse ascites breast cancer cells FM3A (cytotoxicity) [6] | Growth inhibition of human leukemia cells K562 (cytotoxicity) [7] | Fungal growth of Candida albicans [8] | Inhibitory activity against chitinase derived from Candida albicans, in words [4]
1 | CC(=O)N[C@H]1[C@H](O[C@H]2[C@@H](O)[C@@H](NC(C)=O)[C@H](O[C@H]3[C@H](O)[C@H]4N=C(N(C)C)O[C@H]4[C@@H]3CO)O[C@@H]2CO)O[C@H](CO)[C@@H](O)[C@H]1O [Allosamidin, allosamidin] | strongly inhibit | weak inhibitory activity | inhibitors | 0.8 | 6.2 |  |  |  |  | 
2 | CNC1=NC2C(O)C(O[C@@H]3O[C@H](CO)[C@@H](O)[C@H](O)[C@H]3NC(C)=O)C(CO)C2O1 (some centres unmarked) |  |  |  | > 50.0 | 1.0 | > 493 |  |  |  | 
3 | CNC1=NC2C(O)C(O[C@@H]3O[C@H](CO)[C@@H](O[C@@H]4O[C@H](COC)[C@@H](O)[C@@H](O)[C@H]4NC(C)=O)[C@@H](O)[C@H]3NC(C)=O)C(CO)C2O1 (some centres unmarked) [AJI9463A] |  |  |  | 1.3 | 0.6 | 0.642 | No growth inhibition was noted at all | No growth inhibition was noted at all | somewhat inhibited | most potent inhibitory activity of any known compound
4 | CNC1=NC2C(O)C(O[C@@H]3O[C@H](CO)[C@@H](O[C@@H]4O[C@H](COC)[C@@H](O)[C@@H](O)[C@H]4NC(C)=O)[C@H](O)[C@H]3NC(C)=O)C(CO)C2O1 (some centres unmarked) [AJI9463B] |  |  |  | 1.6 | 0.8 | 0.803 | No growth inhibition was noted at all | No growth inhibition was noted at all | somewhat inhibited | superior to that of allosamidin and methylallosamidin
5 | CC(=O)N[C@H]1[C@H](OC2C(O)C3N=C(N(C)C)OC3C2CO)O[C@H](CO)[C@@H](O)[C@@H]1O (some centres unmarked) |  |  |  | > 50.0 | 1.3 | > 477 |  |  |  | 
6 | COC[C@H]1O[C@@H](O[C@H]2[C@H](O)[C@@H](NC(C)=O)[C@H](OC3C(O)C4N=C(N(C)C)OC4C3CO)O[C@@H]2CO)[C@H](NC(C)=O)[C@H](O)[C@@H]1O (some centres unmarked) [AJI9463C] |  |  |  | 0.8 | 3.4 | 49.2 | No growth inhibition was noted at all | No growth inhibition was noted at all | somewhat inhibited | superior to that of allosamidin and methylallosamidin
7 | COC[C@H]1O[C@@H](O[C@H]2[C@@H](O)[C@@H](NC(C)=O)[C@H](OC3C(O)C4N=C(N(C)C)OC4C3CO)O[C@@H]2CO)[C@H](NC(C)=O)[C@H](O)[C@@H]1O (some centres unmarked) [Methylallosamidin, methylallosamidin, reference compound] | strongly inhibit | weak inhibitory activity | inhibitors | 1.2 | 8.8 | 58.4 |  |  |  | 
8 | CNC1=NC2C(O)C(O[C@@H]3O[C@H](CO)[C@@H](O)[C@@H](O)[C@H]3NC(C)=O)C(CO)C2O1 (some centres unmarked) |  |  |  | > 50.0 | 0.9 | > 493 |  |  |  | 
